Where a name gives a salt, the structure may show the parent alone.
Test: Acid value (KOH titration)
Type: physicochemical
Settings: aconitate/citrate products, Table 4
Procedure: The aconitates and citrates prepared in the above examples and comparative examples were tested for acid value, purity, chromaticity, yield, triester conversion rate, and water content. […] The mixture was neutralized with 0.02 mol·L^-1 potassium hydroxide aqueous solution until a faint pink color appears, and the consumed volume Vo was recorded. 1 g of the sample (accurate to 0.01 g) was weighed using a ground-neck conical flask, then one portion of the above neutralized solution was added. After the sample was completely dissolved, the sample was titrated with 0.02 mol·L^-1 potassium hydroxide-ethanol standard titration solution (the titration should be completed within 30 seconds) until a faint pink color appeared and persisted for 5 seconds without fading, which was considered as an end point. The consumed volume V was recorded. […] Chromatographic column: C18 column; injector: 10 µL micro-syringe; solvent: acetonitrile (HPLC grade); acquisition time: 15 min; mobile phase: 80% acetonitrile (HPLC grade) and 20% deionized water; injection volume: 1 µL; wavelength: 230 nm.

Structure (SMILES) | Acid value [KOH/g]
CCCCOC(=O)C=C(CC(=O)OCCCC)C(=O)OCCCC [Comparative Example 1, tributyl aconitate, reference compound] | 0.05
CCCCOC(=O)C=C(CC(=O)OCCCC)C(=O)OCCCC [Comparative Example 2, tributyl aconitate, reference compound] | 0.05
CCCCOC(=O)C=C(CC(=O)OCCCC)C(=O)OCCCC [Comparative Example 3, tributyl aconitate, reference compound] | 0.05
CCCCOC(=O)CC(O)(CC(=O)OCCCC)C(=O)OCCCC [Comparative Example 4, tributyl citrate, reference compound] | 0.05
CCCCOC(=O)CC(O)(CC(=O)OCCCC)C(=O)OCCCC [Comparative Example 5, tributyl citrate, reference compound] | 0.05

Test: Residual amounts of fat-soluble and water-soluble pigments (HPLC)
Type: physicochemical
Settings: aconitate/citrate products, Table 4
Procedure: 7. Residual amounts of fat-soluble pigments and water-soluble pigments: • a high-performance liquid chromatograph (HPLC) was used, and the instrument sensitivity and stability of the detector should comply with the provisions of GB/T 16631-2008. Chromatographic column: C18 column; injector: 10 µL micro-syringe; solvent: acetonitrile (HPLC grade); acquisition time: 15 min; mobile phase: 80% acetonitrile (HPLC grade) and 20% deionized water; injection volume: 1 µL; wavelength: 230 nm.
Test: the instrument was adjusted according to the above provisions. After the baseline was stable, 0.2 µL of the sample was injected using a micro-syringe, and the integrator or chromatographic workstation was started at the same time. A pigment concentration-integral area standard curve was established by testing the integral areas of pigments with different concentrations. When the pigment content was measured, the corresponding pigment integral area was automatically given by the instrument, and the pigment concentration was obtained by comparing with the standard curve. The ratio of the pigment concentration to the sample concentration is the pigment content.

Structure (SMILES) | Residual amounts of fat-soluble pigments [ppm] | Residual amounts of water-soluble pigments [ppm]
CCCCOC(=O)C=C(CC(=O)OCCCC)C(=O)OCCCC [Comparative Example 1, tributyl aconitate, reference compound] | 16424 | 13861
CCCCOC(=O)C=C(CC(=O)OCCCC)C(=O)OCCCC [Comparative Example 2, tributyl aconitate, reference compound] | 2406 | 2248
CCCCOC(=O)C=C(CC(=O)OCCCC)C(=O)OCCCC [Comparative Example 3, tributyl aconitate, reference compound] | 2864 | 2698
CCCCOC(=O)CC(O)(CC(=O)OCCCC)C(=O)OCCCC [Comparative Example 4, tributyl citrate, reference compound] | 3054 | 2156
CCCCOC(=O)CC(O)(CC(=O)OCCCC)C(=O)OCCCC [Comparative Example 5, tributyl citrate, reference compound] | 852 | 653

Test: Compatibility (water value method)
Type: physicochemical
Settings: 2.5 g plasticizer and 25 g acetone titrated with deionized water until turbidity; Table 5
Procedure: (§1) The aconitates and tributyl citrate prepared in the above examples and comparative examples were added as plasticizers to PVC resin to obtain PVC plastics. The PVC plastics include 100 parts of PVC resin, 35 parts of plasticizer, 2 parts of oxidized polyethylene wax, and 5 parts of octyltin maleate. The above raw materials were mixed and prepared using the same mixing process to obtain finished PVC products. The performance tests were performed on different plasticizers and the obtained PVC finished products in the above examples and comparative examples. […] Three points were selected for each group of samples, each point was tested once, and a median value was taken. • 2. […] Compatibility: tests were performed using a water value method. Since water molecules are polar, the compatibility between the plasticizer and water can characterize the compatibility between the plasticizer and polar materials (PVC, PLA, and nitrile rubber). When a certain plasticizer has good compatibility with water, it has good compatibility with PVC, and vice versa. In the experiment, 2.5 g of plasticizer and 25 g of acetone were added to a beaker, titrated with a burette filled with deionized water, and agitated while titrating until turbidity appears, and the volume of deionized water consumed was recorded. • 4. Glass transition temperature (Tg): the glass transition temperature was tested using a dynamic mechanical analyzer. Test conditions: nitrogen was taken as the carrier gas, at a test temperature range of -40 to 80°C, a heating rate of 3°C/min, and a frequency of 1 Hz.

Structure (SMILES) | Compatibility [mL]
CCCCOC(=O)C=C(CC(=O)OCCCC)C(=O)OCCCC [Comparative Example 1, tributyl aconitate, reference compound] | 10.8
CCCCOC(=O)C=C(CC(=O)OCCCC)C(=O)OCCCC [Comparative Example 2, tributyl aconitate, reference compound] | 12.5
CCCCOC(=O)C=C(CC(=O)OCCCC)C(=O)OCCCC [Comparative Example 3, tributyl aconitate, reference compound] | 12.5
CCCCOC(=O)CC(O)(CC(=O)OCCCC)C(=O)OCCCC [Comparative Example 4, tributyl citrate, reference compound] | 13.9
CCCCOC(=O)CC(O)(CC(=O)OCCCC)C(=O)OCCCC [Comparative Example 5, tributyl citrate, reference compound] | 14.3

Test: Glass transition temperature (dynamic mechanical analyzer)
Type: physicochemical
Settings: PVC plastic with 35 parts plasticizer; -40 to 80°C, 3°C/min, 1 Hz
Procedure: as §1

Structure (SMILES) | Tg [°C]
CCCCOC(=O)C=C(CC(=O)OCCCC)C(=O)OCCCC [Comparative Example 1, tributyl aconitate, reference compound] | 30.7
CCCCOC(=O)C=C(CC(=O)OCCCC)C(=O)OCCCC [Comparative Example 2, tributyl aconitate, reference compound] | 28.4
CCCCOC(=O)C=C(CC(=O)OCCCC)C(=O)OCCCC [Comparative Example 3, tributyl aconitate, reference compound] | 28.7
CCCCOC(=O)CC(O)(CC(=O)OCCCC)C(=O)OCCCC [Comparative Example 4, tributyl citrate, reference compound] | 39.7
CCCCOC(=O)CC(O)(CC(=O)OCCCC)C(=O)OCCCC [Comparative Example 5, tributyl citrate, reference compound] | 37.8

Test: Tensile properties (GB/T 1040-2006): tensile modulus at 100%, elongation at break, elastic modulus
Type: physicochemical
Settings: PVC plastic with 35 parts plasticizer; 50 mm/min, 25°C
Procedure: as §1

Structure (SMILES) | Elastic modulus [MPa] | Elongation at break [%] | Tensile modulus at 100% [MPa]
CCCCOC(=O)C=C(CC(=O)OCCCC)C(=O)OCCCC [Comparative Example 1, tributyl aconitate, reference compound] | 192.2 | 223.2 | 17.9
CCCCOC(=O)C=C(CC(=O)OCCCC)C(=O)OCCCC [Comparative Example 2, tributyl aconitate, reference compound] | 187.3 | 231.4 | 17.4
CCCCOC(=O)C=C(CC(=O)OCCCC)C(=O)OCCCC [Comparative Example 3, tributyl aconitate, reference compound] | 186.7 | 233.6 | 17.4
CCCCOC(=O)CC(O)(CC(=O)OCCCC)C(=O)OCCCC [Comparative Example 4, tributyl citrate, reference compound] | 274.8 | 201.3 | 18.1
CCCCOC(=O)CC(O)(CC(=O)OCCCC)C(=O)OCCCC [Comparative Example 5, tributyl citrate, reference compound] | 226.4 | 213.4 | 17.6

Test: Chromaticity (platinum-cobalt colorimetry)
Type: physicochemical
Settings: aconitate/citrate products, Table 4; colour comparison at 25°C
Procedure: 3. Chromaticity: preparation of 500# platinum-cobalt colorimetric standard stock solution: 1.2450 g of potassium chloroplatinate and 1.0000 g of cobalt chloride were weighed, with an accuracy of 0.0002 g, the mixture was dissolved in 100 mL of hydrochloric acid, and then diluted to 1000 mL with distilled water. This solution is just the 500# colorimetric standard comparison solution.
Preparation of colorimetric standards below 500#: different amounts of the 500# stock solution was prepared, and diluted with distilled water to the volume of a colorimetric tube to prepare colorimetric standard solutions of any number. The calculation formula is as follows: V = (N×V1)/500 [formula]
In the formula, V is the volume of the 500# standard stock solution taken to prepare the N# colorimetric standard solution, in mL; V1 is the volume of the colorimetric tube used, in mL; and N is the number of the colorimetric standard solution to be prepared.
Color comparison determination was performed at 25°C.

Structure (SMILES) | Chromaticity [Pt-Co]
CCCCOC(=O)C=C(CC(=O)OCCCC)C(=O)OCCCC [Comparative Example 1, tributyl aconitate, reference compound] | >500
CCCCOC(=O)C=C(CC(=O)OCCCC)C(=O)OCCCC [Comparative Example 2, tributyl aconitate, reference compound] | 120
CCCCOC(=O)C=C(CC(=O)OCCCC)C(=O)OCCCC [Comparative Example 3, tributyl aconitate, reference compound] | 150
CCCCOC(=O)CC(O)(CC(=O)OCCCC)C(=O)OCCCC [Comparative Example 4, tributyl citrate, reference compound] | 150
CCCCOC(=O)CC(O)(CC(=O)OCCCC)C(=O)OCCCC [Comparative Example 5, tributyl citrate, reference compound] | 50

Test: Hardness (Shore hardness tester, GB/T 531-2008)
Type: physicochemical
Settings: PVC plastic: 100 parts PVC resin, 35 parts plasticizer, 2 parts oxidized polyethylene wax, 5 parts octyltin maleate
Procedure: as §1, with “The PVC plastics include 100 parts of PVC resin, 35 parts of plasticizer, 2 parts of oxidized polyethylene wax, and 5 parts of octyltin maleate.” left out

Structure (SMILES) | Hardness/Shore D [Shore D]
CCCCOC(=O)C=C(CC(=O)OCCCC)C(=O)OCCCC [Comparative Example 1, tributyl aconitate, reference compound] | 46
CCCCOC(=O)C=C(CC(=O)OCCCC)C(=O)OCCCC [Comparative Example 2, tributyl aconitate, reference compound] | 45
CCCCOC(=O)C=C(CC(=O)OCCCC)C(=O)OCCCC [Comparative Example 3, tributyl aconitate, reference compound] | 45
CCCCOC(=O)CC(O)(CC(=O)OCCCC)C(=O)OCCCC [Comparative Example 4, tributyl citrate, reference compound] | 51
CCCCOC(=O)CC(O)(CC(=O)OCCCC)C(=O)OCCCC [Comparative Example 5, tributyl citrate, reference compound] | 48

Test: Water content (Karl Fischer moisture meter)
Type: physicochemical
Settings: aconitate/citrate products, Table 4
Text: 6. Water content: a Karl Fischer moisture meter is used to test the water content (retained to two decimal places).

Structure (SMILES) | Water content [%]
CCCCOC(=O)C=C(CC(=O)OCCCC)C(=O)OCCCC [Comparative Example 1, tributyl aconitate, reference compound] | 0.03
CCCCOC(=O)C=C(CC(=O)OCCCC)C(=O)OCCCC [Comparative Example 2, tributyl aconitate, reference compound] | 0.05
CCCCOC(=O)C=C(CC(=O)OCCCC)C(=O)OCCCC [Comparative Example 3, tributyl aconitate, reference compound] | 0.04
CCCCOC(=O)CC(O)(CC(=O)OCCCC)C(=O)OCCCC [Comparative Example 4, tributyl citrate, reference compound] | 0.04
CCCCOC(=O)CC(O)(CC(=O)OCCCC)C(=O)OCCCC [Comparative Example 5, tributyl citrate, reference compound] | 0.03

Source: patent EP4715056A1, “BIO-BASED TRANS-ACONITATE, PREPARATION METHOD THEREFOR AND USE THEREOF” (Qingdao Institute of Bioenergy and Bioprocess Technology, …, priority 2023, dated 2024)
